From US10683293B2, “Optionally fused heterocyclyl-substituted derivatives of pyrimidine useful for the treatment of inflammatory, metabolic, oncologic and autoimmune diseases” (NUEVOLUTION A/S, priority 2014, dated 2020)

target: T1, human RORγt (Ligand Binding Domain) (Homo sapiens, UniProt P51449); assay: Fluorescence Polarization (FP) Assay; details: 100 nM human RORγt LBD, 25 nM TAMRA probe, values are activity range bounds
T1 construct: purchased Crelux (Planegg, Germany) batch no PC5032-1
T1 sequence (P51449 269-508 limits assumed): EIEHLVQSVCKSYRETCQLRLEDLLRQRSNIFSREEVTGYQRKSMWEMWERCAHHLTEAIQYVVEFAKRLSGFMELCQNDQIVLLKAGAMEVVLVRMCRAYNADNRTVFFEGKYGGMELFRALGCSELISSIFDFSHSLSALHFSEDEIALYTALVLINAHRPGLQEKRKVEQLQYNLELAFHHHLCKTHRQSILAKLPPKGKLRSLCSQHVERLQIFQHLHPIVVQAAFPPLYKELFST
Protocol: The activity of the compounds was evaluated using a Fluorescence Polarization (FP) Assay and, RORγ Reporter assay (also referred to as Gal4 assay). The FP assay is an in vitro assay monitoring binding within the ligand binding pocket. The RORγ and the Th17 assays (another suitable assay) are both cell-based assays monitoring functional activity of the compound assayed.
Fluorescence Polarization (FP) Assay
The total volume was 25 μl, in a black Perkin Elmer OptiPlate. As negative control, 1 μl DMSO was used. […] The probe is a fluorescently labeled (TAMRA) RORγt ligand identified by Nuevolution with a total molecular weight of 910 g/mole as shown in Graph A in FIG. 1.

Row | IC50 [nM] | SMILES
1 | < 500 | Fc1c(NCc2ccncc2)ncnc1N(Cc1ccc(C(F)(F)F)cc1)C1CC1 [Example A41, N4-cyclopropyl-5-fluoro-N6-(4-pyridylmethyl)-N4-[[4-(trifluoromethyl)phenyl]methyl] pyrimidine-4,6-diamine]
2 | < 1000 | COC1CCCCC1CNc1ncnc(N(Cc2ccc(C(F)(F)F)cc2)C2CC2)c1F (centres unmarked) [Example A43, N4-cyclopropyl-5-fluoro-N6-[(2-methoxycyclohexyl)methyl]-N4-[[4-(trifluoromethyl)phenyl]methyl] pyrimidine-4,6-diamine]
3 | < 500 | OC1(CNc2ncnc(N(Cc3ccc(C(F)(F)F)cc3)C3CC3)c2F)CCC(F)(F)CC1 [Example A44, 1-[[[6-[cyclopropyl-[[4-(trifluoromethyl)phenyl]methyl]amino]-5-fluoro-pyrimidin-4-yl]amino]methyl]-4,4-difluoro-cyclohexanol]
4 | < 2000 | CS(=O)(=O)CC1(CNc2ncnc(N(Cc3ccc(C(F)(F)F)cc3)C3COC3)c2F)CCOCC1 [Example A45, 5-fluoro-N6-[[4-(methylsulfonylmethyl)tetrahydro-pyran-4-yl]methyl]-N4-(oxetan-3-yl)-N4-[[4-(trifluoromethyl)phenyl]methyl] pyrimidine-4,6-diamine]
5 | < 10000 | CC(C)(C)OC(=O)NCC(c1ccc(C(F)(F)F)cc1)N(c1ncnc(NCc2ccc(CC(N)=O)cc2)c1F)C1CC1 (centres unmarked) [Example A47, tert-butyl N-[2-[[6-[[4-(2-amino-2-oxo-ethyl)phenyl]methylamino]-5-fluoro-pyrimidin-4-yl]-cyclopropyl-amino]-2-[4-(trifluoromethyl)phenyl]ethyl] carbamate]
6 | < 500 | CS(=O)(=O)N1CCC(O)(CNc2ncnc(N(Cc3ccc(C(F)(F)F)cc3)C3CC3)c2F)CC1 [Example A69, 4-[[[6-[cyclopropyl-[[4-(trifluoromethyl)phenyl]methyl]amino]-5-fluoro-pyrimidin-4-yl]amino]methyl]-1-methylsulfonyl-piperidin-4-ol]
7 | < 10000 | O=C(O)CC1(CNc2ncnc(N(Cc3ccc(C(F)(F)F)cc3)C3CC3)c2F)CCS(=O)(=O)CC1 [Example A72, 2-[4-[[[6-[cyclopropyl-[[4-(trifluoromethyl)phenyl]methyl]amino]-5-fluoro-pyrimidin-4-yl]amino]methyl]-1,1-dioxo-thian-4-yl]acetic acid]
8 | < 500 | N#CNC(=O)c1ccc(CNc2ncnc(N(Cc3ccc(C(F)(F)F)cc3)C3CC3)c2F)cc1 [Example A84, N-cyano-4-[[[6-[cyclopropyl-[[4-(trifluoromethyl)phenyl]methyl]amino]-5-fluoro-pyrimidin-4-yl]amino]methyl]benzamide]
9 | < 10000 | O=C(O)CC1CC(CNc2ncnc(N(Cc3ccc(C(F)(F)F)cc3)C3CC3)c2F)C1 (centres unmarked) [Example A92, 2-[3-[[[6-[cyclopropyl-[[4-(trifluoromethyl)phenyl]methyl]amino]-5-fluoro-pyrimidin-4-yl]amino]methyl]cyclobutyl]acetic acid]
10 | < 2000 | N#Cc1ccc(CN(c2ncnc(NCc3ccc(CC(N)=O)cc3)c2F)C2CC2)cn1 [Example A93, 2-[4-[[[6-[(6-cyano-3-pyridyl)methyl-cyclopropyl-amino]-5-fluoro-pyrimidin-4-yl]amino]methyl]phenyl]acetamide]
11 | < 10000 | NC(=O)C1CC(CNc2ncnc(N(Cc3ccc(C(F)(F)F)cc3)C3CC3)c2F)C1 (centres unmarked) [Example A96, 3-[[[6-[cyclopropyl-[[4-(trifluoromethyl)phenyl]methyl]amino]-5-fluoro-pyrimidin-4-yl]amino]methyl]cyclobutane-carboxamide]
12 | < 10000 | NC(=O)Cc1ccc(CNc2ncnc(N(Cc3ccc(C(F)(F)F)nn3)C3CC3)c2F)cc1 [Example A99, 2-[4-[[[6-[cyclopropyl-[[6-(trifluoromethyl)pyridazin-3-yl]methyl]amino]-5-fluoro-pyrimidin-4-yl]amino]methyl]phenyl]acetamide]
13 | < 10000 | CS(=O)(=O)N1CCC(C(=O)Nc2ncnc(N(Cc3ccc(C(F)(F)F)cc3)C3CC3)c2F)CC1 [Example A100, N-[6-[cyclopropyl-[[4-(trifluoromethyl)phenyl]methyl]amino]-5-fluoro-pyrimidin-4-yl]-1-methylsulfonyl-piperidine-4-carboxamide]
14 | < 10000 | O=S(=O)(Nc1ccc(CNc2ncnc(N(Cc3ccc(C(F)(F)F)nc3)C3CC3)c2F)cc1)C(F)F [Example A105, N-[4-[[[6-[cyclopropyl-[[6-(trifluoromethyl)-3-pyridyl]methyl]amino]-5-fluoro-pyrimidin-4-yl]amino]methyl]phenyl]-1,1-difluoro-methanesulfonamide]
15 | < 10000 | O=S(=O)(Nc1ccc(CNc2ncnc(N(Cc3ccc(C(F)(F)F)cn3)C3CC3)c2F)cc1)C(F)F [Example A106, N-[4-[[[6-[cyclopropyl-[[5-(trifluoromethyl)-2-pyridyl]methyl]amino]-5-fluoro-pyrimidin-4-yl]amino]methyl]phenyl]-1,1-difluoro-methanesulfonamide]
16 | < 1000 | CS(=O)(=O)Nc1ncc(CNc2ncnc(N(Cc3ccc(C(F)(F)F)cc3)C3CC3)c2F)cn1 [Example A111, N-[5-[[[6-[cyclopropyl-[[4-(trifluoromethyl)phenyl]methyl]amino]-5-fluoro-pyrimidin-4-yl]amino]methyl]pyrimidin-2-yl]methanesulfonamide]
17 | < 2000 | NC(=O)Cc1ccc(CNc2ncnc(N(Cc3ccc(C(F)(F)F)nc3)C3CC3)c2F)cn1 [Example A112, 2-[5-[[[6-[cyclopropyl-[[6-(trifluoromethyl)-3-pyridyl]methyl]amino]-5-fluoro-pyrimidin-4-yl]amino]methyl]-2-pyridyl]acetamide]
18 | < 10000 | NC(=O)Cc1ccc(CNc2ncnc(N(Cc3ccc(C(F)(F)F)cn3)C3CC3)c2F)cn1 [Example A113, 2-[5-[[[6-[cyclopropyl-[[5-(trifluoromethyl)-2-pyridyl]methyl]amino]-5-fluoro-pyrimidin-4-yl]amino]methyl]-2-pyridyl]acetamide]
19 | < 500 | CS(=O)(=O)c1ccc(CNc2ncnc(N(Cc3ccc(C(F)(F)F)nc3)C3CC3)c2F)nc1 [Example A114, N4-cyclopropyl-5-fluoro-N6-[(5-methylsulfonyl-2-pyridyl)methyl]-N4-[[6-(trifluoromethyl)-3-pyridyl]methyl]pyrimidine-4,6-diamine]
20 | < 500 | CS(=O)(=O)c1ccc(CNc2ncnc(N(Cc3ccc(C(F)(F)F)cn3)C3CC3)c2F)nc1 [Example A115, N4-cyclopropyl-5-fluoro-N6-[(5-methylsulfonyl-2-pyridyl)methyl]-N4-[[5-(trifluoromethyl)-2-pyridyl]methyl]pyrimidine-4,6-diamine]
21 | < 500 | CN(Cc1cccc2ccccc12)c1ncnc(NCc2ccc(CC(N)=O)cc2)c1F [Example A118, 2-[4-[[[5-fluoro-6-[methyl(1-naphthylmethyl)amino]pyrimidin-4-yl]amino]methyl]phenyl]acetamide]
22 | < 2000 | Cn1cc(CN(c2ncnc(NCc3ccc(CC(N)=O)cc3)c2F)C2CC2)cn1 [Example A119, 2-[4-[[[6-[cyclopropyl-[(1-methylpyrazol-4-yl)methyl]amino]-5-fluoro-pyrimidin-4-yl]amino]methyl]phenyl]acetamide]
23 | < 500 | CN(Cc1ccc2ccccc2c1)c1ncnc(NCc2ccc(CC(N)=O)cc2)c1F [Example A121, 2-[4-[[[5-fluoro-6-[methyl(2-naphthylmethyl)amino]pyrimidin-4-yl]amino]methyl]phenyl]acetamide]
24 | < 500 | CN(Cc1ccccc1OC(F)(F)F)c1ncnc(NCc2ccc(CC(N)=O)cc2)c1F [Example A122, 2-[4-[[[5-fluoro-6-[methyl-[[2-(trifluoromethoxy)phenyl]methyl]amino]pyrimidin-4-yl]amino]methyl]phenyl]acetamide]
25 | < 10000 | CCN(Cc1cn(CC)nc1C)c1ncnc(NCc2ccc(CC(N)=O)cc2)c1F [Example A123, 2-[4-[[[6-[ethyl-[(1-ethyl-3-methyl-pyrazol-4-yl)methyl]amino]-5-fluoro-pyrimidin-4-yl]amino]methyl]phenyl]acetamide]
26 | < 500 | CCN(Cc1cccc2c1OCO2)c1ncnc(NCc2ccc(CC(N)=O)cc2)c1F [Example A126, 2-[4-[[[6-[1,3-benzodioxol-4-ylmethyl(ethyl)amino]-5-fluoro-pyrimidin-4-yl]amino]methyl]phenyl]acetamide]
27 | < 500 | CN(Cc1cccc(OC(F)F)c1)c1ncnc(NCc2ccc(CC(N)=O)cc2)c1F [Example A127, 2-[4-[[[6-[[3-(difluoromethoxy)phenyl]methyl-methyl-amino]-5-fluoro-pyrimidin-4-yl]amino]methyl]phenyl]acetamide]
28 | < 500 | CN(Cc1cccc(OC(F)(F)F)c1)c1ncnc(NCc2ccc(CC(N)=O)cc2)c1F [Example A128, 2-[4-[[[5-fluoro-6-[methyl-[[3-(trifluoromethoxy)phenyl]methyl]amino]pyrimidin-4-yl]amino]methyl]phenyl]acetamide]
29 | < 500 | CN(Cc1cccc(C(F)(F)F)c1)c1ncnc(NCc2ccc(CC(N)=O)cc2)c1F [Example A129, 2-[4-[[[5-fluoro-6-[methyl-[[3-(trifluoromethyl)phenyl]methyl]amino]pyrimidin-4-yl]amino]methyl]phenyl]acetamide]
